Assay [1] relates to isolated IMCs (GEMM colonies, multipotent myeloid progenitor cells). In words: CFU-GEMM colony forming assay of isolated IMCs. It counts as cell-based, athymic nude mice. The settings on record: 5 μM, GEMM-supportive semi-solid media, 3 weeks of culture. Here is the method:
(A) Splenic IMCs (Gr-1+CD11b+, also defined as MDSCs: myeloid-derived suppressor cells) were isolated from MDA-MB-231 tumor-bearing athymic nude mice and exposed to BSA, S1P (5 μM), or dhS1P (5 μM). Following 24-hour culture incubation, cells were labeled with specific antibodies and analyzed by multicolor flow cytometry (red: IMCs; blue: possible B-cells). (B) Splenic IMCs were isolated from MDA-MB-231 tumor-bearing athymic nude mice and cultured (5×10^4 cells/mL) in GEMM-supportive semi-solid media with BSA, S1P (5 μM), or dhS1P (5 μM). GEMM colonies (multipotent myeloid progenitor cells) were visualized and counted after 3 weeks of culture. ANOVA, *p<0.01 compared to no treatment or BSA-treatment, ***p<0.001 compared to S1P-treatment, n≧3. (C) Splenic hematopoietic progenitors (Lineage-Sca-1+CD117+) were isolated from MDA-MB-231 tumor-bearing athymic nude mice and exposed to BSA, S1P (5 μM), or dhS1P (5 μM). Following 24-hour culture incubation, cells were labeled with specific antibodies and analyzed by multicolor flow cytometry. […]
Isolated IMCs from the spleens of tumor-bearing athymic nude mice were cultured (5×10^4 cells/mL) in GEMM-supportive complete (mouse) methylcellulose media (R&D Systems, Minneapolis, Minn.), according to the manufacturer's instructions, with BSA, S1P (5 μM), or dhS1P (5 μM). GEMM colonies were visualized and counted after 3 weeks of culture.

Assay [2] deals with murine Panc-02 pancreatic cancer cells. Put plainly: Injection of BSA-conjugated sphingolipids into mice with subcutaneous Panc-02 tumors. The format is in vivo. The settings on record: subcutaneous Panc-02 in C57BL/6J mice; injection every other day, 0.1 mL of 100 μM, BSA carrier. An excerpt:
(A) Splenic IMCs (Gr-1+CD11b+, also defined as MDSC: myeloid-derived suppressor cells) were isolated from subcutaneous human MDA-MB-231 breast tumor-bearing athymic nude mice, treated with or without dhS1P (to induce the expansion of CD19+CD45R B220+ cells: B-cells), and adoptively transferred into subcutaneous human MDA-MB-231 breast tumor-bearing athymic nude mice before monitoring tumor growth. ANOVA, **p<0.05 compared to PBS control, n≧6. (B) Splenic IMCs were isolated from orthotopic human BxPC-3 pancreatic tumor-bearing athymic nude mice, treated with or without dhS1P, and adoptively transferred into orthotopic human BxPC-3 pancreatic tumor-bearing athymic nude mice before monitoring survival. Logrank test, *p<0.05, n=5. (C) Tumor growth following BSA (lipid carrier control), sphingosine-1-phosphate (S1P), or dhS1P injection every other day, was monitored in C57BL/6J mice engrafted with subcutaneous murine Panc-02 pancreatic cancer cells. ANOVA, **p<0.05 compared to BSA control, n≧6.
Orthotopic pancreatic cancer and subcutaneous breast cancer tumors were established in athymic nude, NOD.CB17-Prkdcscid/J, BALB/cJ, or C57BL/6J mice as previously described (8, 9), with minor modifications. All cell lines used in animal and cellular studies, prior to any modification, were originally obtained from the American Type Culture Collection (Manassas, Va.). For orthotopic BxPC-3-GFP human pancreatic cancer xenografts, 4-6 week old female athymic mice were fully anesthetized with a mixture of ketamine-HCl (129 mg/kg) and xylazine (4 mg/kg) injected intramuscularly. A small incision was made in the left flank, the peritoneum was dissected and the pancreas exposed. Using a 27-gauge needle, 2.5×10^6 cells, prepared in 0.1 mL of Hank's balanced salt solution, were injected into the pancreas. For experimental lung-metastatic osteosarcoma xenografts, 4-6 week old female athymic nude mice were tail vein-injected with 2.5×10^6 human SAOS-2-LM7 cells. […] Tumor size was measured by caliper measurement. […]

The test system of assay [3] is human MDA-MB-231 breast cancer cells. In words: PhotoImmunoNanoTherapy, subcutaneous MDA-MB-231 breast tumor growth in athymic nude mice. The format is in vivo. The settings on record: subcutaneous MDA-MB-231 in athymic nude mice; one injection, NIR laser 24 h later. An excerpt: To evaluate the antitumor efficacy of PhotoImmunoNanoTherapy, two murine models of breast cancer were utilized to study effects in T-cell-competent hosts (murine 410.4 cells in BALB/cJ mice) and T-cell-deficient hosts (human MDA-MB-231 cells in athymic nude mice; murine 410.4 cells in NOD.CB17-Prkdcscid/J mice), in addition to a subcutaneously engrafted model of pancreatic cancer (murine Panc-02 cells in C57BL/6J mice), an orthotopic pancreatic cancer model (human BxPC-3 cells in athymic nude mice), and an experimental model of lung-metastatic osteosarcoma (human SAOS-2-LM7 cells in athymic nude mice). Treatments were initiated one week following tumor establishment and consisted of injections of ICG-CPSNPs or controls followed 24 h later by NIR laser treatment of the tumor location to allow adequate tumor accumulation of PEGylated ICGCPSNPs. […] In the most elaborate study, MDA-MB-231 tumor growth was abrogated in athymic nude mice receiving PEGylated ICG-CPSNPs but not PBS or PEGylated ghost CPSNPs (FIG. 1A). Furthermore, MDA-MB-231 tumor growth was not blocked by non-PEGylated (citrate-terminated) ICG-CPSNPs or free ICG.
Orthotopic pancreatic cancer and subcutaneous breast cancer tumors were established in athymic nude, NOD.CB17-Prkdcscid/J, BALB/cJ, or C57BL/6J mice as previously described (8, 9), with minor modifications. […] Tumor size was measured by caliper measurement. […]

For the compound `CCCCCCCCCCCCC/C=C/[C@@H](O)[C@@H](N)COP(=O)(O)O` [S1P, sphingosine-1-phosphate, reference compound], the CFU-GEMM colony formation entry in assay [1] is “dramatically augmented”. The Tumor growth result in assay [2] is “augmented tumor growth”.

For the compound `CC1(C)C(/C=C/C=C/C=C/C=C2\N(CCCCS(=O)(=O)O)c3ccc4ccccc4c3C2(C)C)=[N+](CCCCS(=O)(=O)[O-])c2ccc3ccccc3c21` [free ICG, indocyanine green], the Tumor growth entry in assay [3] was “not blocked”.

For the origin of these results see patent US20160206633A1, “dhS1P AND USE OF SAME AS AN ANTICANCER THERAPEUTIC AND IMMUNOMODULATOR” (Penn State Research Foundation, Inc., priority 2013, published 2016).
